From patent publication US7507749B2, “Antitumor agents” (priority 2001, dated 2009)
Read-outs that look alike come from different tables or passages of the source.

What was measured:
[1] = system: mammary adenocarcinoma-17/Adr; experiment: Test E: R-enantiomer of compound 22b and compound 22a against early stage mammary adenocarcinoma-17/Adr; format: in vivo
Description: Then, P.B.S. was added and the pH adjusted to 7 with HCl. A volume of 0.2 ml per injection was administered to animals intravenously. […] Then, P.B.S. was added and the pH was adjusted to 7 with HCl. A volume of 0.2 ml per injection was administered to animals intravenously.

[2] = system: mammary adenocarcinoma-16/C; experiment: Test F: R-enantiomers of 22b and 22c against early staged mammary adenocarcinoma-16/C; format: in vivo, C3H female mice
Description: C3H female mice were obtained from N.C.I. (D.O.B. was […]; D.O.A. was Jan. 27, 2001). The mice weighed an average of 19.2 gm. Mice were implanted SC with mammary adenocarcinoma-16/C passage-170, a fast growing, highly invasive, highly metastatic tumor (D.O.T. was Mar. 8, 2001; Td was 1.2 days).
The R-enantiomers of both Compound 22c and Compound 22b were each suspended in 3% ethanol, 1% POE-80, 0.5% sodium bicarbonate (by volume) to effect solution, P.B.S. was then added and the pH adjusted to 7 with HCl. Adriamycin (ADRIA; lot number 20338c) was suspended in dH2O to effect solution and the pH was adjusted to 6.0. Mice were administered 0.2 ml per IV injection.

colon carcinoma 26 = system: colon carcinoma 26
Description: In this trial the R-enantiomers of XK-469, compound 22c, and compound 22b were compared against advanced staged colon carcinoma 26 in female Balb/c mice. […] Cage #2 was 22b at 400 mg/kg and Cage #4 was 22c at 400 mg/kg.
The XK469-R, 22b, and 22c compound doses were all prepared the same, using 3% ethanol, 1% POE-80, and 0.5% sodium bicarbonate. The injection volume was 0.2 mu/mouse IV. […] The mice were Balb/c female mice: DOB Feb. 12, 2001; DOA Mar. 27, 2001; DOT Sep. 8, 2001, with an average body weight of 24.7 grams at the start of Rx administration. The tumor was Colon Carcinoma-26 passage 141; date of implant Sep. 8, 2001, and implanted at 30 to 60 mg fragments bilaterally SC. All tumors were 63 to 171 mg on day 6, the day of first Rx.

[3] = system: pancreatic ductal adenocarcinoma-03; format: in vivo
Description: BDF1 female mice were obtained from N.C.I., CRL-Ral (D.O.B. was Feb. 26, 2001; D.O.A. was Mar. 10, 2001). The mice weighed an average of 22.5 gm. Mice were implanted SC with pancreatic ductal adenocarcinoma-03 passage 143. (D.O.T. was May 29, 2001; Td was 2.3 days).
The R-enantiomer of compound 22c was suspended in 3% ethanol, 1% POE-80, 0.25% sodium bicarbonate (by volume) to effect solution. dH2O was then added, and the pH adjusted to 7 with HCl. […] The R-enantiomer of compound 22b was suspended in 3% ethanol, 1% POE-80, 0.5% sodium-bicarbonate (by volume) to effect solution. Then, dH2O was added, and the pH adjusted to 7.5 with HCl. […] Adriamycin (source ADRIA; lot 2033BC) was suspended in dH2O to effect solution, and the pH was 6.0.
Treatment began six days following implant, at which time the tumors were palpable size (126 mg median). The duration of treatment was prolonged (18 days) in order to obtain a clear separation in efficacy between the compounds.

[4] = Cage 3, IV 36 mg/kg day 1, 48 mg/kg/inj qd 2-7, total 324 mg/kg
[5] = Cage 4, IV 7 inj, total 162 mg/kg
[6] = Cage 5, IV 7 inj, total 81 mg/kg
[7] = Cage 2, IV 65 mg/kg/inj qd 1-4, total 260 mg/kg
[8] = Cage 3, IV 65 mg/kg/inj days 1,3,5,7, total 260 mg/kg
[9] = Cage 3, IV 65 mg/kg/inj days 1,3,5,7, total 260 mg/kg, listed as R-enantiomer of compound 22c
[10] = Cage 4, IV 40 mg/kg/inj days 1,3,5,7, total 160 mg/kg
[11] = Cage 4, IV 40 mg/kg/inj days 1,3,5,7, total 160 mg/kg, listed as R-enantiomer of compound 22c
[12] = Cg 13 in table (Cage 12 in text), IV 80 mg/kg/inj days 6,9,12,15,18,21, total 480 mg/kg
[13] = Cg 8, IV 110 mg/kg/inj days 6,10, total 220 mg/kg
[14] = Cg 6, IV 80 mg/kg/inj days 6,8,10,14,16, total 400 mg/kg
[15] = Cg 7, IV 50 mg/kg/inj days 6,8,10,13,15, total 250 mg/kg

CC(Oc1ccc(Oc2ccc3ccc(F)cc3n2)cc1)C(=O)O (racemic) [Compound 22a, 2-[4-(7-fluoroquinolin-2-yloxy)phenoxy]propanoic acid]
% Body Wt Loss at Nadir [1, 4]: −1.6%
% T/C mass [1, 4]: 14%
Activity Rating [1, 4]: ++ (1.3-1.9)
Day of Nadir [1, 4]: 5 days
Drug Deaths [1, 4]: 0/5
Growth Delay [1, 4]: 5 days
Log Kill [1, 4]: 1.5
Median Tumor Mass on day 9 (Range) [1, 4]: 138 (63-207) mg
Tumor Free day-23 [1, 4]: 0/5
Neuromuscular toxicity ([1]; Cage 3, IV 48 mg/kg/inj, limits higher individual dosages): severe neuromuscular toxicity
Duration of leg dysfunction (front legs) ([1]; Cage 3, IV 48 mg/kg/inj, longer for the rear legs): 15 min
% Body Wt Loss at Nadir [1, 5]: −1.5%
% T/C mass [1, 5]: >100%
Activity Rating [1, 5]: inactive
Day of Nadir [1, 5]: 5 days
Drug Deaths [1, 5]: 0/5
Growth Delay [1, 5]: 1 days
Log Kill [1, 5]: 0.3
Median Tumor Mass on day 9 (Range) [1, 5]: 975 (252-1836) mg
Tumor Free day-23 [1, 5]: 0/5
% Body Wt Loss at Nadir [1, 6]: −3.0%
% T/C mass [1, 6]: 77%
Activity Rating [1, 6]: inactive
Day of Nadir [1, 6]: 5 days
Drug Deaths [1, 6]: 0/5
Growth Delay [1, 6]: 1 days
Log Kill [1, 6]: 0.3
Median Tumor Mass on day 9 (Range) [1, 6]: 743 (725-1413) mg
Tumor Free day-23 [1, 6]: 0/5

C[C@@H](Oc1ccc(Oc2ccc3ccc(Br)cc3n2)cc1)C(=O)O [Compound R-22c]
% Body Wt Loss at Nadir [2, 7]: −22.9%
% T/C mass [2, 7]: toxic
Activity Rating [2, 7]: toxic
Cause of death [2, 7]: G.I. epithelial damage
Day of Nadir [2, 7]: 6 days
Drug Deaths [2, 7]: 5/5
Growth Delay in Days [2, 7]: toxic
Log Kill [2, 7]: toxic
Median Tumor Mass on Day 10 (Range) [2, 7]: toxic
Median time for tumors to 1000 mg (range) [2, 7]: toxic
Neuromuscular toxicity [2, 7]: No neuromuscular toxicity
Tumor Free day-155 [2, 7]: 0/5
Drug Deaths ([2]; Cage 2, IV 65 mg/kg/inj qd 1-4, total 260 mg/kg, listed as R-enantiomer of compound 22c): All the mice died
% Body Wt Loss at Nadir [2, 8]: −8.3%
% T/C mass [2, 8]: 4%
Activity Rating [2, 8]: ++ (1.3-1.9)
Day of Nadir [2, 8]: 9 days
Day of full recovery of body weight [2, 8]: 12 days
Drug Deaths [2, 8]: 0/5
Growth Delay [2, 8]: 5.8 days
Log Kill [2, 8]: 1.7
Median Tumor Mass on Day 10 (Range) [2, 8]: 63 mg
Median time for tumors to 1000 mg (range) [2, 8]: 15.3 (14-21.5) days
Neuromuscular toxicity [2, 8]: no neuromuscular toxicity
Tumor Free day-155 [2, 8]: 0/5
% Body Wt Loss at Nadir [2, 9]: −8.3%
% T/C mass [2, 9]: 4%
Drug Deaths [2, 9]: no deaths
% Body Wt Loss at Nadir [2, 10]: +6.4%
% T/C mass [2, 10]: 9%
Activity Rating [2, 10]: ++ (1.3-1.9)
Day of Nadir [2, 10]: 8 days
Drug Deaths [2, 10]: 0/5
Growth Delay [2, 10]: 4.7 days
Log Kill [2, 10]: 1.4
Median Tumor Mass on Day 10 (Range) [2, 10]: 138 mg
Median time for tumors to 1000 mg (range) [2, 10]: 14.2 (12.5-16.7) days
Tumor Free day-155 [2, 10]: 1/5
% Body Wt Loss at Nadir [2, 11]: +6.4%
% T/C mass [2, 11]: 9%
Neuromuscular toxicity ([2]; whole trial (Test F), IV): completely devoid of neuromuscular toxicity
Drug Deaths (colon carcinoma 26; Cg 5, IV 50 mg/kg/inj days 6,8,10,13,15, total 250 mg/kg): 0/6
% Body Wt change at nadir (colon carcinoma 26; mouse, in vivo): −8.1% (17)
Activity Rating (colon carcinoma 26; mouse, in vivo): ++++ (key: ++++: >2.8; +++: 2.0-2.8; ++: 1.3-1.9; +: 0.7-1.2; −: <0.7)
CR's (colon carcinoma 26; mouse, in vivo): 3/6
Growth Delay in Days (colon carcinoma 26; mouse, in vivo): 3/6
Log Kill (colon carcinoma 26; mouse, in vivo): >3.5
Median time for tumors to 700 mg (range) (colon carcinoma 26; mouse, in vivo): 3/6 tumor free
PR's (colon carcinoma 26; mouse, in vivo): 3/6
Tumor Free day-156 (colon carcinoma 26; mouse, in vivo): 3/6
day of nadir (colon carcinoma 26; mouse, in vivo): −8.1% (17) day
Behavior post injection ([3]; Cage 12 in text, IV 80 mg/kg/inj, lasted only a few minutes): agitated post IV injection
Neuromuscular toxicity ([3]; Cage 12 in text, IV 80 mg/kg/inj, total 480 mg/kg): no neuromuscular toxicity
% Body Wt change between day 6 and day 24 [3, 12]: +5.9%
% T/C mass [3, 12]: 2.8%
Activity Rating [3, 12]: ++++ (>2.8)
CR's [3, 12]: 3/4
Drug Deaths [3, 12]: 0/4
Growth Delay [3, 12]: 23.5 days
Log Kill [3, 12]: 3.1
Median Tumor Mass on Day 24 (Range) [3, 12]: 63 mg
Median time for tumors to 1,000 mg (range) [3, 12]: 40 days
PR's [3, 12]: 3/4
Tumor Free day-157 [3, 12]: 0/4

O=P1(N(CCCl)CCCl)NCCCO1 (stereo not drawn) [Cytoxan]
% Body Wt change at nadir (colon carcinoma 26; [13]): −9.4%
Activity Rating (colon carcinoma 26; [13]): no meaningful activity
CR's (colon carcinoma 26; [13]): 0/5
Drug Deaths (colon carcinoma 26; [13]): 0/5
Growth Delay (colon carcinoma 26; [13]): 1 days
Log Kill (colon carcinoma 26; [13]): 0.2
Median time for tumors to 700 mg (range) (colon carcinoma 26; [13]): 14 (12-15) days
PR's (colon carcinoma 26; [13]): 0/5
Tumor Free day-156 (colon carcinoma 26; [13]): 0/5
day of nadir (colon carcinoma 26; [13]): 12 days

CC(Oc1ccc(Oc2cnc3ccc(Cl)cc3n2)cc1)C(=O)[O-].[Na+] (stereo not drawn) [XK469-R]
% Body Wt change at nadir (colon carcinoma 26; [14]): −8.1%
Activity Rating (colon carcinoma 26; [14]): + (0.7-1.2)
CR's (colon carcinoma 26; [14]): 0/6
Drug Deaths (colon carcinoma 26; [14]): 0/6
Growth Delay (colon carcinoma 26; [14]): 5 days
Log Kill (colon carcinoma 26; [14]): 0.9
Median time for tumors to 700 mg (range) (colon carcinoma 26; [14]): 18 (15-20) days
PR's (colon carcinoma 26; [14]): 0/6
Tumor Free day-156 (colon carcinoma 26; [14]): 0/6
day of nadir (colon carcinoma 26; [14]): 13 days
% Body Wt change at nadir (colon carcinoma 26; [15]): −4.0%
Activity Rating (colon carcinoma 26; [15]): inactive
CR's (colon carcinoma 26; [15]): 0/6
Drug Deaths (colon carcinoma 26; [15]): 0/6
Growth Delay in Days (colon carcinoma 26; [15]): none
Log Kill (colon carcinoma 26; [15]): none
Median time for tumors to 700 mg (range) (colon carcinoma 26; [15]): 13 (11.5-20) days
PR's (colon carcinoma 26; [15]): 0/6
Tumor Free day-156 (colon carcinoma 26; [15]): 0/6
day of nadir (colon carcinoma 26; [15]): 13 days
